Assay results from patent US20110124661A1, “OXAZOLOBENZIMIDAZOLE DERIVATIVES” (MERCK SHARP & DOHME CORP., priority 2008, published 2011).

Molecular target: T1, recombinant human mGluR2 (Homo sapiens, UniProt Q14416)
T1 construct: expressed in transfected cells
Test: FLIPR Ca2+ mobilization assay, potentiation of glutamate response
Assay type: cell-based
Conditions: potentiation after EC20 glutamate (900 nM); CHO dhfr- cells expressing human mGluR2 and Gα16; read-out: Representative FLIPR EC50 Values
Procedure: Inhibition constants are determined as follows. The compounds of the present invention may be tested in a […] (FLIPR) based assay. This assay is a common functional assay to monitor Ca^2+ mobilization in whole cells expressing recombinant receptor coupled with a promiscuous G-protein. CHO dhfr-cells stably expressing recombinant human mGluR2 and Gα16 loaded with Fluo-4 AM (Invitrogen, Carlsbad Calif.) are treated with dose responses of compounds and the Ca^2+ response is monitored on a FLIPR384 (Molecular Devices, Sunnydale Calif.) for agonist activity. The potentiation response is monitored after a subsequent addition of an EC20 concentration of glutamate (900 nM). The maximum calcium response at each concentration of compound for agonist or potentiation are plotted as dose responses and the curves are fitted with a four parameters logistic equation giving EC50 and Hill coefficient using the iterative non linear curve fitting software program.

T1 sequence (Q14416 19-872): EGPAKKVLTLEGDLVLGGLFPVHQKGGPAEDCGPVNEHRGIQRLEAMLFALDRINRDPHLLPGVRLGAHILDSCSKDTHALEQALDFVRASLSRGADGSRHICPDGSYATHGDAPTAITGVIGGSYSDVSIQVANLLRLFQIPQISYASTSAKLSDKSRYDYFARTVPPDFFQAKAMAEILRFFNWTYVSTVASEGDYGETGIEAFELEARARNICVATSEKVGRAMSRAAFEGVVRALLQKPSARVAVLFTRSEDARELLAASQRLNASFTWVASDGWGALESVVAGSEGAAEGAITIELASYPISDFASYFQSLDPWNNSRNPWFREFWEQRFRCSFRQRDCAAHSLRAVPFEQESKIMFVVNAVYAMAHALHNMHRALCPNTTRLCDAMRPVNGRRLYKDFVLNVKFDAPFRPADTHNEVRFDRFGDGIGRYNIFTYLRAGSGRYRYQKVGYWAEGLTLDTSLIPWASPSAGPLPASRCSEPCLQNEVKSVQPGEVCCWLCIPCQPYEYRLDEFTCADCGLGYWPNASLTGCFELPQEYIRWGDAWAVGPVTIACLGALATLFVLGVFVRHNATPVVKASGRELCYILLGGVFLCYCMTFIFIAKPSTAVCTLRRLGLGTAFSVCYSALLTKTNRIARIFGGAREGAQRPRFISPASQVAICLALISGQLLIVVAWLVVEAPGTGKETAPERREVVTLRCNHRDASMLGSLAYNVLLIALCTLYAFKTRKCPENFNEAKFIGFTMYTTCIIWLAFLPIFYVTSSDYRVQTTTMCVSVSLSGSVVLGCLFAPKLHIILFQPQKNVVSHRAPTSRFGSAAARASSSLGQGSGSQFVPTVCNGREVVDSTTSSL

EC50	Molecule
261 nM	CC(C)(C)c1ccc(OCC2Cn3c(nc4cccnc43)O2)cc1 (racemic) [Example 2-16, (RS)-2-[(4-tert-butylphenoxy)methyl]-2,3-dihydro[1,3]oxazolo[2′,3′:2,3]imidazo[4,5-b]pyridine]
28 nM	CC(C)(C)c1ccc(OC[C@@H]2Cn3c(nc4cc(C#N)ccc43)O2)cn1 [Example 1-6, (2S)-2-{[(6-tert-butylpyridin-3-yl)oxy]methyl}-2,3-dihydro[1,3]oxazolo[3,2-a]benzimidazole-7-carbonitrile]
206 nM	CC(C)(C)c1cc(OC[C@@H]2Cn3c(nc4cc(C#N)ccc43)O2)ccn1 [Example 1-12, (2S)-2-{[(2-tert-butylpyridin-4-yl)oxy]methyl}-2,3-dihydro[1,3]oxazolo[3,2-a]benzimidazole-7-carbonitrile]
58 nM	CC(C)(C)c1ccc(OC[C@@H]2Cn3c(nc4cc(F)c(F)cc43)O2)cn1 [Example 1-17, (2S)-2-{[(6-tert-bulylpyridin-3-yl)oxy]methyl}-6,7-difluoro-2,3-dihydro[1,3]oxazolo[3,2-a]benzimidazole]
507 nM	FC(F)(F)c1ccc(OC[C@@H]2Cn3c(nc4ccccc43)O2)cn1 [Example 1-21, (2S)-2-({[6-(trifluoromethyl)yridine-3-yl]oxy}methyl)-2,3-dihydro[1,3]oxazolo[3,2-a]benzimidazole]

Molecule	EC50
(2S)-2-{[4-(2,2,2-trifluoro-1,1-dimethylethyl)phenoxy]methyl}-2,3-dihydro[1,3]oxazolo[3′,2′:1,2]imidazo[4,5-c]pyridine [Example 2-8]	21 nM
